Measurements: patent publication US4971964A, “Pyridine derivatives” (priority 1988, dated 1990)
pIC50: −log10 of the molar value.

Tests used:
[1] = target: T1, thromboxane synthase (TXA2 synthase), bovine platelet microsome (Bos taurus, UniProt Q2KIG5); test: Test on Inhibition of TXA2 Biosynthesis (bovine platelet microsome, TXB2 by radioimmunoassay); format: biochemical; details: for pIC50: bovine platelet microsome, pH 7.4, prostaglandin H2 substrate
T1 construct: bovine platelet microsome; from tissue; host or cells: bovine platelets (microsome)
T1 sequence (Q2KIG5 1-533): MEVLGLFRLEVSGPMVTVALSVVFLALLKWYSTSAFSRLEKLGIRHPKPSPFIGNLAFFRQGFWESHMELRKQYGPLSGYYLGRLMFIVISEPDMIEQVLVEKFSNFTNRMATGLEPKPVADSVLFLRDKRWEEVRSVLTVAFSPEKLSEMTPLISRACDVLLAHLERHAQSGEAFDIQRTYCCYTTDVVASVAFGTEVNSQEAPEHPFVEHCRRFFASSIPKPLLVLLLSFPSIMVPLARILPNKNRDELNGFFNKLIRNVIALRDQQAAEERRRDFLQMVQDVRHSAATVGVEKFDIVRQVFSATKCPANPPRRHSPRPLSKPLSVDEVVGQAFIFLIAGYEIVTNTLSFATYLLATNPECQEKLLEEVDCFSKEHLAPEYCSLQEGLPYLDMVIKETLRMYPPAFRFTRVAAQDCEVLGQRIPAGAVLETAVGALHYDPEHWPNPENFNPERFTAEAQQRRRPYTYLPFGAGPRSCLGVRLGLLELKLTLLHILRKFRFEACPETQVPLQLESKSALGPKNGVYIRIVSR
Description: A mixture of 70 μl of bovine platelet microsome [protein: 40 μg; 100 mM tris-HCl buffer (pH=7.4)] and 10 μl of a test compound solution (100 mM tris-HCl buffer containing 10% methanol) was allowed to stand at 0° C. for 5 minutes, and 20 μl of a prostaglandin H2 solution (100 mM tris-HCl buffer supplemented with acetone containing 0.1 nmol of prostaglandin H2) was added thereto as a substrate.
The amount of thromboxane B2 (TXB2) (stable degradation product of TXA2) produced in the system was determined by radioimmunoassay [F. A. Fitzpatrick et al., Methods in Enzymology, Vol. 86, p.286 (1982)].
Inhibition of TXB2 synthesis was evaluated by IC50 (50% inhibitory concentration) or percent inhibition as calculated from equation described below, and the results obtained are shown in Table 1. [formula]

dd male mice = test: Acute Toxicity Test (minimum lethal dose, MLD); format: in vivo; details: dd male mice, mortality after 7 days
Description: A test compound was given to dd male mice weighing 20±1 g (3 mice per group) per os. (p.o.; 300 mg/kg) or intraperitoneally (i.p.; 100 mg/kg). The mortality after 7 days from the administration was considered to determine the minimum lethal dose (MLD).

[2] = system: silver nitrate-induced arteriothromboembolia in male Wistar-Shizuoka rats; test: Test on Inhibition of Silver Nitrate-Induced Arteriothromboembolia in Rats; format: in vivo; details: for Number of Obstruction Case/Number of Experiments: control 23/26; for Percent Obstruction: control 88%
Source text: Male Wistar -Shizuoka rats weighing 270±20 g were anesthetized with urethane (1.5 g/kg) intraperitoneally. Each animal was fixed on its back, and a venous cannula and an arterial cannula were inserted into the left carotid vein and the left femoral artery, respectively. An abdominal incision was made, the intestinal tract was put aside so that the descending abdominal aorta could be seen, the surrounding connective tissues were removed, the descending aorta was detached to a length of about 1 cm, and the detached descending aorta was put on a globe of 8 cm in diameter. A solvent (0.1 ml; physiological saline containing 0.05N sodium hydroxide) or a drug solution (0.1 ml) in the solvent was injected via the cannulated carotid vein per 100 g of body weight. Three minutes later, a 30% silver nitrate aqueous solution was dropped on the detached descending abdominal aorta. Five minutes later, the globe was removed, and the affected site was washed three times with physiological saline to stop the reaction. After the elapse of 30 minutes from the stopping of the reaction, the blood pressure of the femoral artery was measured, and the pressure fall was taken as an indication of obstruction of the descending arterial. Significance of the difference in degree of the obstruction between the control group (only the solvent was administered) and the test group was assayed by X^2 -assay.

Compound | inhibition at 10 µM [1] [%] | Acute Toxicity (MLD) ip (dd male mice) [mg/kg] | Acute Toxicity (MLD) po (dd male mice) [mg/kg] | pIC50 [1] | other results
O=C(O)CCCC/C=C1/c2ccccc2NC(=O)c2cnccc21 [Compound I-19E, (E)-5-(5-Carboxypentylidene)-5,11-dihydropyrido[3,4-c][1]benzazepin-11(10H)-one] | 13 | > 100 | > 300 | – | –
CSC1=Nc2ccccc2C(=CCCCCC(=O)O)c2cnccc21 [Compound I-6, 11-(5-Carboxypentylidene)-5-thiomethyl-11(H)-pyrido-[4,3-c][1]benzazpin] | – | > 100 | > 300 | 8.30 | –
CN1C(=O)c2cnccc2/C(=C/CCCCC(=O)O)c2ccccc21 [Compound I-20Z, (Z)-5-(5-carboxypentylidene)-10-methyl-5,11-dihydropyrido[3,4-c][1]benzazepin-11(10H)-one] | -23 | > 100 | > 300 | – | –
CN1C(=O)c2cnccc2/C(=C\CCCCC(=O)O)c2ccccc21 [Compound I-20E, (E)-5-(5-Carboxypentylidene)-10-methyl-5,11-dihydropyrido[3,4-c][1]benzazepin-11(10H)-one] | 10 | > 100 | > 300 | – | –
Cc1cccc2c1NC(=O)c1ccncc1C2=CCCCCC(=O)O [Compound I-2, 11-(5-Carboxypentylidene)-7-methyl-5,11-dihydropyrido-[4,3-c][1]benzazepin-5(6H)-one] | – | > 100 | > 300 | – | inhibition at 0.1 µM ([1]; 0.1 μM (footnote *), read-out: Inhibition of TXA2 Biosynthesis, Percent inhibition at 0.1 μM): 41%
O=C(O)CCCC/C=C1\c2ccccc2NC(=O)c2ccncc21 [Compound I-10E, (E)-11-(5-Carboxypentylidene)-5,11-dihydropyrido[4,3-c][1]benzazepin-5(6H)-one] | – | > 100 | > 300 | 7.68 | –
O=C(O)CCCCC=C1c2cnccc2CNc2ccccc21 [Compound I-15, 11-(5-Carboxypentylidene)-11H-5,6-dihydropyrido[4,3-c][1]benzazepin] | – | > 100 | > 300 | 7.66 | –
COc1ccc2c(c1)C(=CCCCCC(=O)O)c1cnccc1C(=O)N2C [Compound I-3, 11-(5-Carboxypentylidene)-9-methoxy-6-methyl-5,11-dihydropyrido-[4,3-c][1]benzazepin-5(6H)-one] | – | > 100 | > 300 | 6.40 | –
O=C(O)CCCCC=C1c2cc(Br)ccc2NC(=O)c2ccncc21 [Compound I-1, 9-Bromo-11-(5-carboxypentylidene)-5,11-dihydropyrido-[4,3-c][1]benzazepin-5(6H)-one] | – | > 100 | > 300 | 7.49 | –
O=C(O)CCCC/C=C1/c2ccccc2NC(=O)c2ccncc21 [Compound I-10Z, (Z)-11-(5-carboxypentylidene)-5,11-dihydropyrido[4,3-c][1]benzazepin-5(6H)-one] | – | > 100 | > 300 | 7.80 | –
CN1C(=O)c2ccncc2/C(=C/CCCCC(=O)O)c2ccccc21 [Compound I-12E, (E)-11-(5-Carboxypentylidene)-6-methyl-5,11-dihydropyrido[4,3-c][1]benzazepin-5(6H)-one] | – | > 100 | > 300 | 7.70 | –
C/C=C/C1=Cc2ccccc2/C(=C/CCCCC(=O)O)c2cnccc21 [Compound I-7, (Z)-11-(5-Carboxypentylidene)-5-[(E)-1-propen-1-yl]-(H)-pyrido[3,4-b]benzcycloheptene] | – | > 100 | > 300 | 7.68 | –
O=C(O)CCCCCC1c2ccccc2NC(=O)c2cnccc21 (stereo not drawn) [Compound I-21, 5-(5-Carboxypentyl)-5,11-dihydropyrido[3,4-c][1]benzazepin-11(10H)-one] | 47 | > 100 | > 300 | – | –
O=C(O)CCCC/C=C1/c2cnccc2C(=O)N(Cc2ccccc2)c2ccccc21 [Compound I-11E, (E)-6-Benzyl-11-(5-carboxypentylidene)-5,11-dihydropyrido[4,3-c][1]benzazepin-5(6H)-one] | – | > 100 | > 300 | 8.08 | –
O=C(O)CCCCC=C1c2ccncc2CNc2ccccc21 [Compound I-23, 5-(5-carboxypentylidene)-5H-10,11-dihydropyrido[3,4-c][1]benzazepin] | 27 | > 100 | > 300 | – | –
C/C(=C\c1ccc(Cc2cccnc2)cc1)C(=O)O [OKY-1581, reference compound] | – | – | – | – | Number of Obstruction Case/Number of Experiments ([2]; 0.3 mg/kg i.v.): 5/5; Percent Obstruction ([2]; 0.3 mg/kg i.v.): 100%; Number of Obstruction Case/Number of Experiments ([2]; 1.0 mg/kg i.v.): 4/6; Percent Obstruction ([2]; 1.0 mg/kg i.v.): 67%; Number of Obstruction Case/Number of Experiments ([2]; 3.0 mg/kg i.v.): 0/3; Percent Obstruction ([2]; 3.0 mg/kg i.v.): 0%
O=C(O)CCCC/C=C1\c2cnccc2C(=O)N(Cc2ccccc2)c2ccccc21 [Compound I-11Z, (Z)-6-benzyl-11-(5-carboxypentylidene)-5,11-dihydropyrido[4,3-c][1]benzazepin-5(6H)-one] | – | > 100 | > 300 | 7.39 | –
O=C(O)CCCCCCC=C1c2ccccc2NC(=O)c2ccncc21 [Compound I-5, 11-(7-Carboxyheptylidene)-5,11-dihydropyrido[4,3-c][1]-benzazepin-5(6H)-one] | – | > 100 | > 300 | 6.89 | –
O=C(O)CCCC/C=C1\c2ccccc2NC(=O)c2cnccc21 [Compound I-19Z, (Z)-5-(5-carboxypentylidene)-5,11-dihydropyrido[3,4-c][1]benzazepin-11(10H)-one] | 8 | > 100 | > 300 | – | –
O=C(O)CCCC/C=C(\c1ccccc1)c1cccnc1 [CV-4151, reference compound] | – | – | – | – | Number of Obstruction Case/Number of Experiments ([2]; 0.3 mg/kg i.v.): 4/6; Percent Obstruction ([2]; 0.3 mg/kg i.v.): 67%; Number of Obstruction Case/Number of Experiments ([2]; 1.0 mg/kg i.v.): 4/8; Percent Obstruction ([2]; 1.0 mg/kg i.v.): 50%; Number of Obstruction Case/Number of Experiments ([2]; 3.0 mg/kg i.v.): 1/5; Percent Obstruction ([2]; 3.0 mg/kg i.v.): 20%
